Series [1] has as its target Glutamate [NMDA] receptor. The series is described as follows: In vitro binding affinity against N-methyl-D-aspartate glutamate receptor using [3H]-[…] as radioligand. The series is classed as protein-complex assay.
A short description of series [2]: pKa value determined by potentiometric titrations. 4.4 is the equivalence volume; initial titrant volume is 9.8. The series is classed as physicochemical.
Another series is filed under the species Rattus norvegicus. The series is described as follows: Electrophysiological study in rat cortical slice model. The series is classed as functional.
Series [3] deals with Glutamate receptor ionotropic AMPA (Rattus norvegicus).
The target in series [4] is Glutamate receptor ionotropic kainate.
Description: In vitro binding affinity against Ionotropic glutamate receptor kainate (kainic acid) using [3H]KAIN as radioligand
The nature of series [5]: pKa value determined by potentiometric titrations. 5.1 is the equivalence volume; initial titrant volume is 9.4. The series is classed as physicochemical.
The nature of series [6]: pKa value determined by potentiometric titrations. 4.6 is the equivalence volume; initial titrant volume is 10.2. The series is classed as physicochemical.
The nature of series [7]: pKa value determined by potentiometric titrations. 4.5 is the equivalence volume; initial titrant volume is 9.5. The series is classed as physicochemical.
The nature of series [8]: pKa value determined by potentiometric titrations. 4.6 is the equivalence volume; initial titrant volume is 9.5. The series is classed as physicochemical.
Series [9] can be described thus: pKa value determined by potentiometric titrations. 5 is the equivalence volume; initial titrant volume is 9.6. The series is classed as physicochemical.
Series [10] is described as follows: pKa value determined by potentiometric titrations. 5 is the equivalence volume; initial titrant volume is 9.7. The series is classed as physicochemical.
A short description of series [11]: pKa value determined by potentiometric titrations. 4.9 is the equivalence volume; initial titrant volume is 9.7. The series is classed as physicochemical.
Series [12] can be described thus: pKa value determined by potentiometric titrations. 5.3 is the equivalence volume; initial titrant volume is 9.8. The series is classed as physicochemical.

Structures are written as SMILES. Where only a bound is given, the exact number is not on record here.

By IC50 is commonly meant the concentration that gives 50% inhibition. A high value points to weaker potency. One may read the pKa as the pH at which an ionisable group is half protonated. Broadly, the EC50 is the concentration that produces a half-maximal response. Read a low EC50 as higher potency in that assay.

For `NC(Cc1c(O)noc1-c1nccs1)C(=O)O` (stereo unspecified), the IC50 is over 100 µM in [1], 0.094 µM in series [3] and 4.9 µM in series [4]. Further, the pKa in series [2] is under 2. In the series filed under Rattus norvegicus, this compound registered an EC50 of 2.3 µM.
Take `Cn1nnnc1-c1onc(O)c1CC(N)C(=O)O` (stereo unspecified): the figures for the IC50 in series [1], in series [3] and in [4] were over 100 µM, 54 µM and over 100 µM, respectively. The EC50 in the series listed under Rattus norvegicus was over 1000 µM. Further, the pKa in series [5] came out at 3.7.
In the case of `NC(Cc1c(O)noc1-c1nc[nH]n1)C(=O)O` (stereo unspecified), in [6], the pKa was under 2.4. Moreover, the IC50 is over 100 µM in [1], 1.5 µM in series [3] and 58 µM in series [4]. The EC50 in the series filed under Rattus norvegicus came to 63 µM.
Regarding `Cn1ncnc1-c1onc(O)c1CC(N)C(=O)O` (stereo unspecified), the pKa in series [7] is under 2.3. In addition, the IC50 in series [1] was over 100 µM; in [3], 5.8 µM; in series [4], 16 µM. Also, the EC50 in the series listed under Rattus norvegicus was determined as 93 µM.
Regarding `Cn1cnc(-c2onc(O)c2CC(N)C(=O)O)n1` (stereo unspecified), the IC50 in series [1] was over 100 µM; in series [3], 0.7 µM; in series [4] it was over 100 µM. This compound registered an EC50 in the series filed under Rattus norvegicus of 11 µM. Besides, the pKa in series [8] is under 2.3.
As for `Cn1nnc(-c2onc(O)c2CC(N)C(=O)O)n1` (stereo unspecified), the IC50 in [1] is over 100 µM; in series [4] it was 41 µM. The compound also gave an EC50 in the series listed under Rattus norvegicus of 0.92 µM. Also, the pKa in [9] amounted to 2.9.
With `NC(Cc1c(O)noc1-c1nn[nH]n1)C(=O)O` (stereo unspecified), the pKa in series [10] is under 3. Besides, the IC50 was over 100 µM in series [1], 72 µM in series [3] and over 100 µM in series [4]. The EC50 in the series filed under Rattus norvegicus is over 1000 µM.
Consider `NC(Cc1c(O)noc1-c1ncc[nH]1)C(=O)O` (stereo unspecified), for which the IC50 in series [1] was over 100 µM; in series [3], 48 µM; in [4], over 100 µM. This compound also registered an EC50 in the series listed under Rattus norvegicus of 550 µM. The pKa in [11] was under 3.4.
Regarding `Cn1ccnc1-c1onc(O)c1CC(N)C(=O)O` (stereo unspecified), the IC50 was over 100 µM in [1], over 100 µM in series [3] and 74 µM in series [4]. Further, the EC50 in the series filed under Rattus norvegicus was over 1000 µM. The pKa in series [12] is under 3.4.
On to `Cc1onc(O)c1CC(N)C(=O)O` [(R,S)-AMPA], for which the IC50 in series [1] is over 100 µM. The midpoint of the response in the series listed under Rattus norvegicus, the EC50, lay at 5.4 µM.

The record behind these values is ChEMBL document CHEMBL1130350, “Heteroaryl analogues of AMPA. Synthesis and quantitative structure-activity relationships” (J Med Chem, 1997).
